In US6423727B1, “Certain thiol inhibitors of endothelin-converting enzyme” (Novartis AG, priority 1998, dated 2002):
Structures can show the parent of a compound that is named as a salt.

| melting point | Structure (SMILES) |
| --- | --- |
| 192 to 195 °C | CC(C)C[C@H](S)C(=O)NC1(C(=O)NC(Cc2ccc(-c3cncnc3)cc2)C(=O)O)CCCC1 (stereo in doubt) [2-{[1-(2-Mercapto-4-methyl-pentanoylamino)-cyclopentanecarbonyl]-amino}-3-(4-pyrimidin-5-yl-phenyl)-propionic acid] |
| 104 to 110 °C | CC(C)C[C@H](S)C(=O)NC1(C(=O)N[C@@H](Cc2ccc(-c3ccno3)cc2)C(=O)O)CCCC1 (stereo in doubt) [3-(4-Isoxazole-5-yl-phenyl)-2-{[1-(2-mercapto4-methyl-pentanoylamino)-cyclopentanecarbonyl]-amino}-propionic acid] |
| 158 to 164 °C | CC(C)[C@H](S)C(=O)NC1(C(=O)N[C@@H](Cc2cccc3c2CCCC3)C(=O)O)CCCC1 (stereo in doubt) [2-{[1-(2-Mercapto-3-methylbutanoylamino)-cyclopentanecarbonyl]-amino}-3-(5,6,7,8-tetrahydro-naphthalen-1-yl)-propionic acid] |
| 173 to 175 °C | COc1ccccc1-c1ccc(C[C@H](NC(=O)C2(NC(=O)[C@@H](S)C(C)C)CCCC2)C(=O)O)cc1OC (stereo in doubt) [3-(2,2′-Dimethoxy-biphenyl-4-yl)-2-{[1-(2-mercapto-3-methyl-butanoylamino)-cyclopentanecarbonyl]-amino}-propionic acid] |
| 116 to 118 °C | CC(C)CC(S)C(=O)NC1(C(=O)NC(Cc2c[nH]c3ccccc23)C(=O)O)CCCC1 (stereo not drawn) [Example 13(b), 3-(1H-Indol-3-yl)-2-{[1-(2-mercapto-4-methyl-pentanoylamino)-cyclopentanecarbonyl]-amino}-propionic acid] |
| 155 to 158 °C | CC(C)[C@H](S)C(=O)NC1(C(=O)NC(Cc2ccc(-c3csc(CO)c3)cc2)C(=O)O)CCCC1 (stereo in doubt) [3-[4-(5-Hydroxymethyl-thiophen-3-yl)-phenyl]-2-{[1-(2-mercapto-3-methyl-butanoylamino)-cyclopentanecarbonyl]-amino}-propionic acid] |
| 121 to 123 °C | COc1cc(C[C@H](NC(=O)C2(NC(=O)[C@@H](S)C(C)C)CCCC2)C(=O)O)ccc1-c1ccccc1 (stereo in doubt) [2-{[1-(2-Mercapto-3-methylbutanoylamino)-cyclopentanecarbonyl]-amino}-3-(2-methoxybiphenyl-4-yl)-propionic acid] |
| 75 to 78 °C | CC(C)[C@H](S)C(=O)NC1(C(=O)N[C@@H](Cc2cccc(-c3ccccc3)c2)C(=O)O)CCCC1 (stereo in doubt) [3-Biphenyl-3-yl-2-{[1-(2-mercapto-3-methylbutanoylamino)-cyclopentanecarbonyl]-amino}-propionic acid] |
| 125 to 128 °C | CC(C)C[C@H](S)C(=O)NC1(C(=O)N[C@@H](Cc2ccc(-c3cccc(F)c3)cc2)C(=O)O)CCCC1 (stereo in doubt) [3-(3′-Fluoro-biphenyl-4-yl)-2-{[1-(2-mercapto-4-methyl-pentanoylamino)-cyclopentanecarbonyl]-amino}-propionic acid] |
| 179 to 181 °C | CC(C)[C@H](S)C(=O)NC1(C(=O)N[C@@H](Cc2ccc(-c3cccs3)cc2)C(=O)O)CCCC1 (stereo in doubt) [2-{[1-(2-Mercapto-3-methyl-butanoylamino)-cyclopentanecarbonyl]-amino}-3-[4-(thiophen-2-yl)-phenyl]-propionic acid] |
| 135 to 137 °C | CC(C)CC(S)C(=O)NC1(C(=O)NC(Cc2csc3ccccc23)C(=O)O)CCCC1 (stereo not drawn) [Example 13(e), 3-Benzo[b]thiophen-3-yl-2-{[1-(2-mercapto4-methyl-pentanoylamino)-cyclopentanecarbonyl]-amino}-propionic acid] |
| 102 to 105 °C | CCCC(S)C(=O)NC1(C(=O)NC(Cc2c[nH]c3ccccc23)C(=O)O)CCCC1 (stereo not drawn) [Example 13(c), 3-(1H-Indol-3-yl)-2-{[1-(2-mercapto-pentanoylamino)-cyclopentanecarbonyl]-amino}-propionic acid] |

Continued, compound first:

| Structure (SMILES) | melting point |
| --- | --- |
| CC[C@H](C)C(S)C(=O)NC1(C(=O)N[C@@H](Cc2ccc(-c3ccsc3)cc2)C(=O)O)CCCC1 (stereo in doubt) [2-{[1-(2-Mercapto-3-methyl-pentanoylamino)-cyclopentanecarbonyl]-amino}-3-[4-(thiophen-3-yl)-phenyl]-propionic acid] | 99 to 101 °C |
| CC(C)[C@H](S)C(=O)NC1(C(=O)N[C@@H](Cc2ccc(-c3ccccc3)cc2)C(=O)O)CCc2ccccc21 (stereo in doubt) [3-Biphenyl-4-yl-2-{[1-(2-mercapto-3-methyl-butyrylamino)-indane-1-carbonyl]-amino}-propionic acid] | 115 to 120 °C |
| CC(C)[C@H](S)C(=O)NC1(C(=O)N[C@@H](CC2CCC(C3CCCCC3)CC2)C(=O)O)CCCC1 (stereo in doubt) [3-Bicyclohexyl-4-yl-2-{[1-(2-mercapto-3-methyl-butanoylamino)-cyclopentanecarbonyl]-amino}-propionic acid] | 209 to 210 °C |
| CC(C)[C@H](S)C(=O)NC1(C(=O)NC(Cc2ccc(-c3ccncc3)cc2)C(=O)O)CCCC1 (stereo partly drawn) [2-{[1-(2-Mercapto-3-methyl-butanoylamino)-cyclopentanecarbonyl]-amino}-3-(4-yl-phenyl)-propionic acid] | 236 to 238 °C |
| O=C(O)[C@H](Cc1ccc(-c2ccccc2)cc1)NC(=O)C1(NC(=O)[C@@H](S)Cc2ccc3ccccc3c2)CCCC1 (stereo in doubt) [3-Biphenyl-4-yl-2-{[1-(2-mercapto-3-naphthalen-2-yl-propionylamino)-cyclopentanecarbonyl]-amino}-propionic acid] | 166 to 168 °C |
| Cc1c(CC(NC(=O)C2(NC(=O)C(S)CC(C)C)CCCC2)C(=O)O)oc2c(F)c(F)c(F)c(F)c12 (stereo not drawn) [Example 13(a), 2-{[1-(2-Mercapto-4-methyl-pentanoylamino)-cyclopentanecarbonyl]-amino}-3-(4,5,6,7-tetrafluoro-3-methyl-benzofuran-2-yl)-propionic acid] | 115 to 117 °C |
| CC[C@H](C)[C@H](S)C(=O)NC1(C(=O)NC(Cc2ccc(-c3cncnc3)cc2)C(=O)O)CCCC1 (stereo in doubt) [2-{[1-(2-Mercapto-3-methyl-pentanoylamino)-cyclopentanecarbonyl]-amino}-3-(4-pyrimidin-5-yl-phenyl)-propionic acid] | 206 to 208 °C |
| CC(C)[C@H](S)C(=O)NC1(C(=O)N[C@@H](Cc2ccc3c(c2)CCCC3)C(=O)O)CCCC1 (stereo in doubt) [2-{[1-(2-Mercapto-3-methyl-butanoylamino)-cyclopentanecarbonyl]-amino}-3-(5,6,7,8-tetrahydro-naphthalen-2-yl)-propionic acid] | 190 to 192 °C |
| O=C(O)[C@H](Cc1ccc(-c2ccc(C(F)(F)F)cc2)cc1)NC(=O)C1(NC(=O)[C@@H](S)Cc2ccccc2)CCCC1 (stereo in doubt) [2-{[1-(2-Mercapto-3-phenyl-propionylamino)-cyclopentanecarbonyl]-amino}-3-(4′-trifluoromethyl-biphenyl-4-yl)-propionic acid] | 222 to 225 °C |
| CC(=O)N1CCCC(c2ccc(C[C@H](NC(=O)C3(NC(=O)[C@@H](S)C(C)C)CCCC3)C(=O)O)cc2)C1 (stereo in doubt) [3-[4-(1-Acetyl-piperidin-3-yl)-phenyl]-2-{[1-(2-mercapto-3-methyl-butanoylamino)-cyclopentanecarbonyl]-amino}-propionic acid] | 190 to 192 °C |
| COc1cccc(-c2ccc(CC(NC(=O)C3(NC(=O)[C@@H](S)C(C)C)CCCC3)C(=O)O)cc2)c1 (stereo in doubt) [2-{[1-(2-Mercapto-3-methyl-butanoylamino)-cyclopentanecarbonyl]-amino}-3-(3′-methoxy-biphenyl-4-yl)-propionic acid] | 159 to 160 °C |
| O=C(O)[C@H](Cc1ccc(-c2ccccc2)cc1)NC(=O)C1(NC(=O)[C@@H](S)Cc2ccc(-c3ccccc3)cc2)CCCC1 | 187 to 189 °C |
| CC(C)[C@H](S)C(=O)NC1(C(=O)N[C@@H](Cc2ccc(-c3ccccc3)cc2)C(=O)O)CCOCC1 (stereo in doubt) [3-Biphenyl-4-yl-2-{[4-(2-mercapto-3-methyl-butanoylamino)-tetrahydro-pyran-4-carbonyl]-amino}-propionic acid] | 161 to 163 °C |
| O=C(NC1(C(=O)NC(Cc2ccc(C3CCCCC3)cc2)C(=O)O)CCCC1)C(S)Cc1ccccc1 (stereo not drawn) [3-(4-Cyclohexyl-phenyl)-2-{[1-(2-mercapto-3-phenyl-propionylamino)-cyclopentanecarbonyl]-amino}-propionic acid] | 172 to 175 °C |
| CCC[C@H](S)C(=O)NC1(C(=O)N[C@@H](Cc2ccc(-c3ccno3)cc2)C(=O)O)CCCC1 (stereo in doubt) [3-(4-Isoxazole-5-yl-phenyl)-2-{[1-(2-mercapto-pentanoylamino)-cyclopentanecarbonyl]-amino}-propionic acid] | 95 to 108 °C |
| CC[C@@H](C)[C@H](S)C(=O)NC1(C(=O)NC(Cc2ccc(-c3cncnc3)cc2)C(=O)O)CCCC1 (stereo in doubt) (as salt: hydrochloride) [2-{[1-(2-Mercapto-3-methyl-pentanoylamino)-cyclopentanecarbonyl]-amino}-3-(4-pyrimidin-5-yl-phenyl)-propionic acid hydrochloride] | 170 to 184 °C |
| CC(C)[C@H](S)C(=O)NC1(C(=O)N[C@@H](Cc2ccc(-c3ccc(C(F)(F)F)cc3)cc2)C(=O)O)CCCC1 (stereo in doubt) [2-{[1-(2-Mercapto-3-methylbutanoylamino)-cyclopentanecarbonyl]-amino}-3-(4′-trifluoromethyl-biphenyl-4-yl)-propionic acid] | 235 to 236 °C |
| O=C(NC1(C(=O)N[C@@H](Cc2ccc(-c3ccsc3)cc2)C(=O)O)CCCC1)C(S)Cc1ccccc1 (stereo in doubt) [2-{[1-(2-Mercapto-3-phenyl-propionylamino)-cyclopentanecarbonyl]-amino}-3-[4-(thiophen-3-yl)-phenyl]-propionic acid] | 190 to 192 °C |
